Literature values as cited in US6338847B1, “Compositions and methods to disinfect contact lenses” (Allergan, priority 1993, dated 2002).

B1: lysozyme (protein, UniProt P61626 19-148, looked up)
Lysozyme C: KVFERCELARTLKRLGMDGYRGISLANWMCLAKWESGYNTRATNYNAGDRSTDYGIFQINSRYWCNDGKTPGAVNACHLSCSALLQDNIADAVACAKRVVRDPQGIRAWVAWRNRCQNRDVRQYVQGCGV
notes: cellulose and/or chitin decomposing enzyme component; a primary tear protein

Tested on: cyst form of acanthamoeba

| Molecule | survival of cysts exposed to hydrogen peroxide (exposed for two hours) | time to killing all the cysts (lysozyme included in the hydrogen peroxide solution) [min] |
| --- | --- | --- |
| OO [hydrogen peroxide] | survived after two weeks |  |
| B1 |  | ≤ 30 |
